Test results: paper PMC7649969, “Pyrazolyl-pyrimidones inhibit the function of human solute carrier protein SLC11A2 (hDMT1) by metal chelation” (RSC Medicinal Chemistry, 2020)
“Also recorded” adds a separate entry of the source.

Target: T1, hDMT1 (Homo sapiens, UniProt P49281)
T1 sequence (P49281 1-568): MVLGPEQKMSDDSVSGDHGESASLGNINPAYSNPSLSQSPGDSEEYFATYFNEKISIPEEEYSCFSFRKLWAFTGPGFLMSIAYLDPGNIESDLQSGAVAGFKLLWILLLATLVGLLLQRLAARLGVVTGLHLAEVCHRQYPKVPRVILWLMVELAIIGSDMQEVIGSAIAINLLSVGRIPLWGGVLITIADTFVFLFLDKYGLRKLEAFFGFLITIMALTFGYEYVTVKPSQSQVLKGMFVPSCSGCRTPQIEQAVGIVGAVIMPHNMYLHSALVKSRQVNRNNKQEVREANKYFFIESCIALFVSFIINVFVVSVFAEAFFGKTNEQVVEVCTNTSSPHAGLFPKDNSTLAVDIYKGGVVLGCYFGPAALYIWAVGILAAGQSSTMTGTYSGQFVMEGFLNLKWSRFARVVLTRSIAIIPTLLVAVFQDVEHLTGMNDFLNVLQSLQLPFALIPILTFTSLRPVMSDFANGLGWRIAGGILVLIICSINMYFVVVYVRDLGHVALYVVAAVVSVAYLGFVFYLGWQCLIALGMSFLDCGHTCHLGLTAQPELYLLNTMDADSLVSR
Experiment: two-electrode voltage-clamp electrophysiology of Fe2+ evoked currents in hDMT1-injected Xenopus oocytes
Type: cell-based
Conditions: Fe2+ 20 μM
Experimental: Fig. 3 Characterization of Fe^2+ transport inhibition by 1 and 13 in X. laevis oocytes (collected from frogs under license number BE60/18 conceded by the Veterinärdienst des Kantons BE, Sekretariat Tierversuche). (a) Upper panel: Average ^55Fe^2+-uptake (20 μM) by hDMT1-expressing and non-injected oocytes in the absence and the presence of the indicated compounds (10 μM). Data was normalized to ^55Fe^2+-uptake (pmol min^–1) in the absence of compounds represented as mean ± SD (16–29 oocytes). Lower panel: Net uptake of ^55Fe^2+ (20 μM) by hDMT1 in the absence and the presence of the indicated compounds (10 μM). For each batch of oocytes, uptake values were corrected for unspecific iron uptake in non-injected oocytes. Data were normalized to the mean iron uptake by hDMT1 WT (pmol min^–1) and represented as mean ± SD (14–34 oocytes). (b and c) Electrophysiology. […] For each trace, recorded currents were corrected for the background currents observed without substrate. (b) Representative traces recorded with hDMT1 injected oocytes (upper panel) and non-injected oocytes (lower panel). […] Statistical differences were assessed using T-test or Mann–Whitney U test (Fe^2+-uptake by hDMT1 WT vs. non-injected oocytes or vs. compound); p > 0.05 = ns; p < 0.001 = ***.
250 µM non-radioactive Fe2+ and 100 µM Ascorbic acid. Next, oocytes were solubilized with SDS 10% and 55Fe2+ content was determined by scintillation counting. To determine the total activity of the hDMT1-expressing oocytes, uptake of 55Fe2+ was determined also in the absence of any compound. […]
Electrophysiology methods. […] Then, the membrane voltage was held at -50 mV (Vh), and the current (nA) required to keep Vh constant was recorded along the experiments. These currents were measured with an OC-725 amplifier (Warner Instruments), low-pass filtered at 500 Hz, digitized at 5 kHz with a Digidata 1440 data acquisition system and captured using pClamp 10 software (Axon Instruments). […]

Row | IC50 (currents at -70 mV, dose-response 0.01-10 μM, read-out: IC50 of inhibition of Fe2+ evoked currents) | IC50 of inhibition of Fe2+ evoked currents (currents at -70 mV, dose-response 0.01-10 μM) | SMILES | effect on hDMT1-induced currents (compound up to 10 μM)
1 | 140 nM |  | N=C(N)SCc1cccc2c1oc1c(CSC(=N)N)cccc12 [Compound 1, reference compound] | 
2 |  | did not fit to the equation | Cc1cc(=O)[nH]c(-n2nc3c(c2C)CCCC3)n1 [Compound 13] | no measurable effect on the recorded currents; also recorded: did not modulate hDMT1-induced currents
